Legend:
Test in all cases: relative viability (nuclei count vs DMSO), 5 days (fraction); higher = more cells survive
Metformin + Lapatinib = compound: CN(C)C(=N)NC(=N)N [Metformin] + CS(=O)(=O)CCNCc1ccc(-c2ccc3ncnc(Nc4ccc(OCc5cccc(F)c5)c(Cl)c4)c3c2)o1 [Lapatinib] (partner 2 µM)
Summary of the method: (§1)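 One day after seeding in 1536-well plates, lung cancer cell lines were dosed by pin tool. Dosing was either single-drug or a fixed anchor-drug dose plus five library-drug doses (not always all listed) in √10 steps. After 5 days, nuclei were stained in one fix-and-stain step and counted on 4× images, and relative viability is the nuclei count of treated wells over that of vehicle wells, given as the median of duplicate plates.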

Metformin + Pictilisib = compound: CN(C)C(=N)NC(=N)N [Metformin] + CS(=O)(=O)N1CCN(Cc2cc3nc(-c4cccc5[nH]ncc45)nc(N4CCOCC4)c3s2)CC1 [Pictilisib] (partner 1 µM)
Summary of the method: as §1

Apatinib + Lapatinib = compound: N#CC1(c2ccc(NC(=O)c3cccnc3NCc3ccncc3)cc2)CCCC1 [Apatinib] + CS(=O)(=O)CCNCc1ccc(-c2ccc3ncnc(Nc4ccc(OCc5cccc(F)c5)c(Cl)c4)c3c2)o1 [Lapatinib] (partner 2 µM)
Summary of the method: as §1

Apatinib + Alpelisib = compound: N#CC1(c2ccc(NC(=O)c3cccnc3NCc3ccncc3)cc2)CCCC1 [Apatinib] + Cc1nc(NC(=O)N2CCC[C@H]2C(N)=O)sc1-c1ccnc(C(C)(C)C(F)(F)F)c1 [Alpelisib] (partner 2 µM)
Summary of the method: as §1

Row | Cell Line | relative viability (Metformin + Lapatinib; first compound 10 µM) | relative viability (Metformin + Lapatinib; first compound 31.62 µM) | relative viability (Metformin + Lapatinib; first compound 100 µM) | relative viability (Metformin + Lapatinib; first compound 316.23 µM) | relative viability (Metformin + Lapatinib; first compound 1000 µM) | relative viability (Metformin + Pictilisib; first compound 10 µM) | relative viability (Metformin + Pictilisib; first compound 31.62 µM) | relative viability (Metformin + Pictilisib; first compound 100 µM) | relative viability (Metformin + Pictilisib; first compound 316.23 µM) | relative viability (Metformin + Pictilisib; first compound 1000 µM) | relative viability (Apatinib + Lapatinib; first compound 0.08 µM) | relative viability (Apatinib + Lapatinib; first compound 0.253 µM) | relative viability (Apatinib + Lapatinib; first compound 0.8 µM) | relative viability (Apatinib + Lapatinib; first compound 2.53 µM) | relative viability (Apatinib + Lapatinib; first compound 8 µM) | relative viability (Apatinib + Alpelisib; first compound 0.08 µM) | relative viability (Apatinib + Alpelisib; first compound 0.253 µM) | relative viability (Apatinib + Alpelisib; first compound 0.8 µM) | relative viability (Apatinib + Alpelisib; first compound 2.53 µM) | relative viability (Apatinib + Alpelisib; first compound 8 µM)
1 | NCI-H1437 | 0.868 | 0.887 | 0.619 | 0.712 | 0.808 | 0.671 | 0.729 | 0.406 | 0.629 | 0.757 | 0.761 | 0.841 | 0.745 | 0.624 | 0.537 | 1.03 | 1.11 | 0.911 | 0.912 | 0.644
2 | H3255 | 0.254 | 0.227 | 0.291 | 0.29 | 0.211 | 0.388 | 0.53 | 0.4 | 0.46 | 0.478 | 0.235 | 0.227 | 0.231 | 0.311 | 0.286 | 0.665 | 0.674 | 0.569 | 0.614 | 0.537
3 | NCI-H322M | 0.589 | 0.598 | 0.688 | 0.614 | 0.585 | 0.471 | 0.52 | 0.491 | 0.469 | 0.43 | 0.571 | 0.465 | 0.57 | 0.64 | 0.584 | 0.782 | 0.744 | 0.766 | 0.89 | 0.782
4 | CAL-12T | 0.645 | 0.801 | 0.794 | 0.618 | 0.736 | 0.423 | 0.511 | 0.527 | 0.415 | 0.518 | 0.736 | 0.608 | 0.778 | 0.575 | 0.589 | 1.11 | 1.13 | 1.22 | 1.04 | 1.04
5 | PC-14 | 0.432 | 0.438 | 0.37 | 0.36 | 0.372 | 0.577 | 0.811 | 0.654 | 0.734 | 0.776 | 0.384 | 0.29 | 0.283 | 0.277 | 0.23 | 0.935 | 0.861 | 0.876 | 0.875 | 0.838
6 | NCI-H2009 | 0.574 | 0.98 | 1.01 | 0.889 | 0.991 | 0.795 | 0.922 | 0.846 | 0.779 | 0.763 | 0.993 | 0.893 | 0.863 | 0.795 | 0.538 | 1.13 | 1.2 | 1.1 | 1.02 | 0.893
7 | NCI-H2347 | 0.582 | 0.881 | 1.04 | 0.832 | 1 | 0.665 | 0.834 | 1.02 | 0.492 | 0.659 | 0.926 | 0.992 | 1.02 | 0.964 | 0.957 | 0.943 | 1.02 | 1 | 1.02 | 0.944
8 | NCI-H23 | 0.998 | 1.14 | 1.05 | 0.762 | 1.11 | 0.505 | 0.604 | 0.527 | 0.614 | 0.654 | 1.54 | 1.2 | 0.959 | 1.04 | 0.905 | 0.665 | 0.911 | 0.595 | 0.627 | 0.558

From the supplement of paper PMC10307832
